Consider 21 compounds from US20250049817A1, “JAK INHIBITOR WITH A VITAMIN D ANALOG FOR TREATMENT OF SKIN DISEASES” (INCYTE CORPORATION, priority 2020, published 2025).

Each structure is given as a SMILES string. Bounds are passed on as bounds.

The target in assay [1] is human JAK1 (a.a. 837-1142) (Homo sapiens, UniProt P23458). The assay is described as follows: In vitro JAK kinase assay (HTRF), JAK1. The class given is biochemical. As to conditions: 1 mM ATP. (TR-FRET usually uses a lanthanide donor and a delayed reading to cut background.)
Assay [2] concerns human JAK1 (a.a. 837-1142). The assay is described as follows: In vitro JAK kinase assay (HTRF), JAK1. The class given is biochemical. Conditions: JAK2/JAK1 IC50 ratio, 1 mM ATP.

As a reminder, the IC50 is the midpoint of a concentration-inhibition curve. Read a low IC50 as inhibition by little substance. For the compound `N#CCC(C1CCN(c2cccc(Cl)n2)C1)n1cc(-c2ncnc3[nH]ccc23)cn1` (single isomer, unassigned) [Compound 6, 3-[1-(6-chloropyridin-2-yl)pyrrolidin-3-yl]-3-[4-(7H-pyrrolo[2,3-d]pyrimidin-4-yl)-1H-pyrazol-1-yl]propanenitrile], the IC50 in assay [1] is below 10 nM. The JAK2/JAK1 in assay [2] is on record as above 10.

As for `N#CCC1(n2cc(-c3ncnc4[nH]ccc34)cn2)CN(C2CCN(C(=O)c3ccnc(C(F)(F)F)c3F)CC2)C1` [Compound 1, {1-{1-[3-Fluoro-2-(trifluoromethyl)isonicotinoyl]piperidin-4-yl}-3-[4-(7H-pyrrolo [2,3-d]pyrimidin-4-yl)-1H-pyrazol-1-yl]azetidin-3-yl}acetonitrile], the IC50 in assay [1] is below 10 nM. For the same compound, the JAK2/JAK1 in assay [2] is on record as above 10.

In turn, `N#CCC1(n2cc(-c3ncnc4[nH]ccc34)cn2)CN(C2CCN(C(=O)Nc3ccc(F)cc3C(F)(F)F)CC2)C1` [Compound 2, 4-{3-(Cyanomethyl)-3-[4-(7H-pyrrolo[2,3-d]pyrimidin-4-yl)-1H-pyrazol-1-yl]azetidin-1-yl}-N-[4-fluoro-2-(trifluoromethyl)phenyl] piperidine-1-carboxamide] gave an IC50 in assay [1] below 10 nM. Moreover, in assay [2], the JAK2/JAK1 is on record as above 10.

`N#CCC1(n2cc(-c3ncnc4[nH]ccc34)cn2)CN(C2CCN(C(=O)c3ccnc(C(F)(F)F)n3)CC2)C1` [Compound 3, [3-[4-(7H-pyrrolo[2,3-d]pyrimidin-4-yl)-1H-pyrazol-1-yl]-1-(1-{[2-(trifluoromethyl)pyrimidin-4-yl]carbonyl}piperidin-4-yl)azetidin-3-yl]acetonitrile] displayed a half-inhibitory concentration (IC50) in assay [1] below 10 nM. For the same compound, the JAK2/JAK1 in assay [2] was above 10.

For the compound `C[C@@H](O)c1nc2cnc3ccsc3c2n1[C@H]1CC[C@H](CC#N)OC1` [Compound 5, ((2R,5S)-5-{2-[(1R)-1-hydroxyethyl]-1H-imidazo[4,5-d]thieno[3,2-b]pyridin-1-yl}tetrahydro-2H-pyran-2-yl)acetonitrile], the concentration for half-maximal inhibition (IC50) in assay [1] was below 100 nM. Further, the JAK2/JAK1 in assay [2] is above 10.

In assay [1], `N#CCC(C1CCN(c2nc3cccnc3o2)C1)n1cc(-c2ncnc3[nH]ccc23)cn1` (stereo not drawn) [Compound 7, 3-(1-[1,3]oxazolo[5,4-b]pyridin-2-ylpyrrolidin-3-yl)-3-[4-(7H-pyrrolo[2,3-d]pyrimidin-4-yl)-1H-pyrazol-1-yl]propanenitrile] yielded a half-inhibitory concentration (IC50) below 10 nM. Moreover, the JAK2/JAK1 in assay [2] is above 10.

As to `N#CCC(CN1CCN(C(=O)c2ccc(C#N)cc2F)CC1)n1cc(-c2ncnc3[nH]ccc23)cn1` (stereo not drawn) [Compound 8, 4-[(4-{3-cyano-2-[4-(7H-pyrrolo[2,3-d]pyrimidin-4-yl)-1H-pyrazol-1-yl]propyl}piperazin-1-yl)carbonyl]-3-fluorobenzonitrile], in assay [1], the 50% inhibitory concentration (IC50) is below 10 nM. The JAK2/JAK1 in assay [2] is recorded as above 10.

As for `N#CCC(CN1CCN(C(=O)c2ccc(C#N)cc2F)CC1)n1ccc(-c2ncnc3[nH]ccc23)c1` (stereo not drawn) [Compound 9, 4-[(4-{3-cyano-2-[3-(7H-pyrrolo[2,3-d]pyrimidin-4-yl)-1H-pyrrol-1-yl]propyl}piperazin-1-yl)carbonyl]-3-fluorobenzonitrile], in assay [1], the IC50 is below 10 nM. In assay [2], the JAK2/JAK1 is above 10.

Take `N#CC[C@]1(n2cc(-c3ncnc4[nH]ccc34)cn2)C[C@H](N2CCN(C(=O)c3ccnc(C(F)(F)F)n3)CC2)C1` [Compound 10, [trans-1-[4-(7H-pyrrolo[2,3-d]pyrimidin-4-yl)-1H-pyrazol-1-yl]-3-(4-{[2-(trifluoromethyl)pyrimidin-4-yl]carbonyl}piperazin-1-yl)cyclobutyl]acetonitrile]: the IC50 in assay [1] was below 10 nM. In addition, the JAK2/JAK1 in assay [2] is above 10.

Regarding `N#CC[C@]1(n2cc(-c3ncnc4[nH]ccc34)cn2)C[C@H](N2CCC(Oc3cc(CN4CC(O)C4)cc(C(F)(F)F)n3)CC2)C1` [Compound 11, {trans-3-(4-{[4-[(3-hydroxyazetidin-1-yl)methyl]-6-(trifluoromethyl)pyridin-2-yl]oxy}piperidin-1-yl)-1-[4-(7H-pyrrolo[2,3-d]pyrimidin-4-yl)-1H-pyrazo1-1-yl]cyclobutyl}acetonitrile], in assay [1], the half-maximal inhibitory concentration (IC50) is below 10 nM. The JAK2/JAK1 in assay [2] was above 10.

Compound `N#CC[C@]1(n2cc(-c3ncnc4[nH]ccc34)cn2)C[C@H](N2CCC(Oc3cc(CN4CCC[C@H]4CO)cc(C(F)(F)F)n3)CC2)C1` [Compound 12, {trans-3-(4-{[4-{[(2S)-2-(hydroxymethyl)pyrrolidin-1-yl]methyl}-6-(trifluoromethyl)pyridin-2-yl]oxy}piperidin-1-yl)-1-[4-(7H-pyrrolo[2,3-d]pyrimidin-4-yl)-1H-pyrazol-1-yl]cyclobutyl}acetonitrile] returned an IC50 in assay [1] below 10 nM. The JAK2/JAK1 in assay [2] is listed as above 10.

In the case of `N#CC[C@]1(n2cc(-c3ncnc4[nH]ccc34)cn2)C[C@H](N2CCC(Oc3cc(CN4CCC[C@@H]4CO)cc(C(F)(F)F)n3)CC2)C1` [Compound 13, {trans-3-(4-{[4-{[(2R)-2-(hydroxymethyl)pyrrolidin-1-yl]methyl}-6-(trifluoromethyl)pyridin-2-yl]oxy}piperidin-1-yl)-1-[4-(7H-pyrrolo[2,3-d]pyrimidin-4-yl)-1H-pyrazol-1-yl]cyclobutyl}acetonitrile], in assay [1], the half-maximal inhibitory concentration (IC50) is below 10 nM. The JAK2/JAK1 in assay [2] is listed as above 10.

In assay [1], `C[C@H](NC(=O)c1cc(F)c(N2CC(CC#N)(n3cc(-c4ncnc5[nH]ccc45)cn3)C2)cc1F)C(F)(F)F` [Compound 16, 4-{3-(cyanomethyl)-3-[4-(7H-pyrrolo[2,3-d]pyrimidin-4-yl)-1H-pyrazol-1-yl]azetidin-1-yl]-2,5-difluoro-N-[(1S)-2,2,2-trifluoro-1-methylethyl]benzamide] showed an IC50 below 10 nM. Moreover, the JAK2/JAK1 in assay [2] is recorded as above 10.

In assay [1], `N#CCC1(n2cc(-c3ncnc4[nH]ccc34)cn2)CN([C@H]2CC[C@@H](Oc3cc(CCO)nc(C(F)(F)F)n3)CC2)C1` [Compound 18, {1-(cis-4-{[6-(2-hydroxyethyl)-2-(trifluoromethyl)pyrimidin-4-yl]oxy}cyclohexyl)-3-[4-(7H-pyrrolo[2,3-d]pyrimidin-4-yl)-1H-pyrazol-1-yl]azetidin-3-yl}acetonitrile] returned an IC50 below 10 nM. In addition, the JAK2/JAK1 in assay [2] was above 10.

Turning to `CCNCc1cc(O[C@H]2CC[C@@H](N3CC(CC#N)(n4cc(-c5ncnc6[nH]ccc56)cn4)C3)CC2)nc(C(F)(F)F)c1` [Compound 19, {1-(cis-4-{[4-[(ethylamino)methyl]-6-(trifluoromethyl)pyridin-2-yl]oxy}cyclohexyl)-3-[4-(7H-pyrrolo[2,3-d]pyrimidin-4-yl)-1H-pyrazol-1-yl]azetidin-3-yl}acetonitrile], the IC50 in assay [1] was below 10 nM. For the same compound, in assay [2], the JAK2/JAK1 is recorded as above 10.

In assay [1], `CC(C)(O)c1cc(O[C@H]2CC[C@@H](N3CC(CC#N)(n4cc(-c5ncnc6[nH]ccc56)cn4)C3)CC2)nc(C(F)(F)F)c1` [Compound 20, {1-(cis-4-{[4-(1-hydroxy-1-methylethyl)-6-(trifluoromethyl)pyridin-2-yl]oxy]cyclohexyl)-3-[4-(7H-pyrrolo[2,3-d]pyrimidin-4-yl)-1H-pyrazol-1-yl]azetidin-3-yl}acetonitrile] registered an IC50 below 10 nM. The JAK2/JAK1 in assay [2] is on record as above 10.

On to `N#CCC1(n2cc(-c3ncnc4[nH]ccc34)cn2)CN([C@H]2CC[C@@H](Oc3cc(CN4CC[C@@H](O)C4)cc(C(F)(F)F)n3)CC2)C1` [Compound 21, {1-(cis-4-{[4-{[(3R)-3-hydroxypyrrolidin-1-yl]methyl}-6-(trifluoromethyl)pyridin-2-yl]oxy}cyclohexyl)-3-[4-(7H-pyrrolo[2,3-d]pyrimidin-4-yl)-1H-pyrazol-1-yl]azetidin-3-yl}acetonitrile], for which, in assay [1], the concentration for half-maximal inhibition (IC50) is below 10 nM. The JAK2/JAK1 in assay [2] was above 10.

`N#CCC1(n2cc(-c3ncnc4[nH]ccc34)cn2)CN([C@H]2CC[C@@H](Oc3cc(CN4CC[C@H](O)C4)cc(C(F)(F)F)n3)CC2)C1` [Compound 22, {1-(cis-4-{[4-{[(3S)-3-hydroxypyrrolidin-1-yl]methyl}-6-(trifluoromethyl)pyridin-2-yl]oxy}cyclohexyl)-3-[4-(7H-pyrrolo[2,3-d]pyrimidin-4-yl)-1H-pyrazol-1-yl]azetidin-3-yl}acetonitrile] gave a half-maximal inhibitory concentration (IC50) in assay [1] below 10 nM. Besides, the JAK2/JAK1 in assay [2] was above 10.

For `C[C@@H](CO)NCc1cc(OC2CCN([C@H]3C[C@](CC#N)(n4cc(-c5ncnc6[nH]ccc56)cn4)C3)CC2)nc(C(F)(F)F)c1` [Compound 23, {trans-3-(4-{[4-({[(1S)-2-hydroxy-1-methylethyl]amino}methyl)-6-(trifluoromethyl)pyridin-2-yl]oxy}piperidin-1-yl)-1-[4-(7H-pyrrolo[2,3-d]pyrimidin-4-yl)-1H-pyrazol-1-yl]cyclobutyl}acetonitrile], the concentration for half-maximal inhibition (IC50) in assay [1] was below 10 nM. Further, in assay [2], the JAK2/JAK1 is above 10.

`C[C@@H](O)CNCc1cc(OC2CCN([C@H]3C[C@](CC#N)(n4cc(-c5ncnc6[nH]ccc56)cn4)C3)CC2)nc(C(F)(F)F)c1` [Compound 24, {trans-3-(4-{[4-({[(2R)-2-hydroxypropyl]amino}methyl)-6-(trifluoromethyl)pyridin-2-yl]oxy}piperidin-1-yl)-1-[4-(7H-pyrrolo[2,3-d]pyrimidin-4-yl)-1H-pyrazol-1-yl]cyclobutyl]acetonitrile] gave a half-maximal inhibitory concentration (IC50) in assay [1] below 10 nM. In addition, the JAK2/JAK1 in assay [2] is above 10.

For the compound `C[C@H](O)CNCc1cc(OC2CCN([C@H]3C[C@](CC#N)(n4cc(-c5ncnc6[nH]ccc56)cn4)C3)CC2)nc(C(F)(F)F)c1` [Compound 25, {trans-3-(4-{[4-({[(2S)-2-hydroxypropyl]amino}methyl)-6-(trifluoromethyl)pyridin-2-yl]oxy}piperidin-1-yl)-1-[4-(7H-pyrrolo[2,3-d]pyrimidin-4-yl)-1H-pyrazol-1-yl]cyclobutyl}acetonitrile], in assay [1], the half-inhibitory concentration (IC50) is below 10 nM. In assay [2], the JAK2/JAK1 is above 10.
